Where a chain is given by its changes, count along the chain named.
Tests used:
[1] = target: T1, SMP of E-Syt3 (Homo sapiens, UniProt A0FGR9); assay: FRET dequenching lipid transfer between liposomes; type: biochemical; settings: curved ER-like donor and PM-like acceptor liposomes, pH 7.4; labelled compound
T1 construct: gene ESYT3; SMP domain alone, residues 113-304, His tag (pET-28a); full-length protein 886 residues
T1 sequence (A0FGR9 113-304): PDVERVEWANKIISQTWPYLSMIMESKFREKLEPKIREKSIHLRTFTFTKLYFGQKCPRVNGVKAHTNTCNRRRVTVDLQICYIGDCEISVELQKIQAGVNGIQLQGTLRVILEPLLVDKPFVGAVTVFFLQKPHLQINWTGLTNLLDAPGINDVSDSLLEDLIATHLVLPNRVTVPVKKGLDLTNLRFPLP

[2] = target: T2, full-length E-Syt1 (Homo sapiens, UniProt Q9BSJ8); assay: FRET dequenching lipid transfer from proteoliposomes; type: biochemical; settings: Ca2+ present, 40-nm sorted ER-like proteoliposomes, 800-nm PM-like acceptors, pH 7.4, room temperature; labelled compound
T2 construct: gene ESYT1; full length, residues 1-1104, His-tagged (pCMV6-AN-His), Expi293 cells, detergent-purified, reconstituted in ER-like liposomes
T2 sequence (Q9BSJ8 1-1104): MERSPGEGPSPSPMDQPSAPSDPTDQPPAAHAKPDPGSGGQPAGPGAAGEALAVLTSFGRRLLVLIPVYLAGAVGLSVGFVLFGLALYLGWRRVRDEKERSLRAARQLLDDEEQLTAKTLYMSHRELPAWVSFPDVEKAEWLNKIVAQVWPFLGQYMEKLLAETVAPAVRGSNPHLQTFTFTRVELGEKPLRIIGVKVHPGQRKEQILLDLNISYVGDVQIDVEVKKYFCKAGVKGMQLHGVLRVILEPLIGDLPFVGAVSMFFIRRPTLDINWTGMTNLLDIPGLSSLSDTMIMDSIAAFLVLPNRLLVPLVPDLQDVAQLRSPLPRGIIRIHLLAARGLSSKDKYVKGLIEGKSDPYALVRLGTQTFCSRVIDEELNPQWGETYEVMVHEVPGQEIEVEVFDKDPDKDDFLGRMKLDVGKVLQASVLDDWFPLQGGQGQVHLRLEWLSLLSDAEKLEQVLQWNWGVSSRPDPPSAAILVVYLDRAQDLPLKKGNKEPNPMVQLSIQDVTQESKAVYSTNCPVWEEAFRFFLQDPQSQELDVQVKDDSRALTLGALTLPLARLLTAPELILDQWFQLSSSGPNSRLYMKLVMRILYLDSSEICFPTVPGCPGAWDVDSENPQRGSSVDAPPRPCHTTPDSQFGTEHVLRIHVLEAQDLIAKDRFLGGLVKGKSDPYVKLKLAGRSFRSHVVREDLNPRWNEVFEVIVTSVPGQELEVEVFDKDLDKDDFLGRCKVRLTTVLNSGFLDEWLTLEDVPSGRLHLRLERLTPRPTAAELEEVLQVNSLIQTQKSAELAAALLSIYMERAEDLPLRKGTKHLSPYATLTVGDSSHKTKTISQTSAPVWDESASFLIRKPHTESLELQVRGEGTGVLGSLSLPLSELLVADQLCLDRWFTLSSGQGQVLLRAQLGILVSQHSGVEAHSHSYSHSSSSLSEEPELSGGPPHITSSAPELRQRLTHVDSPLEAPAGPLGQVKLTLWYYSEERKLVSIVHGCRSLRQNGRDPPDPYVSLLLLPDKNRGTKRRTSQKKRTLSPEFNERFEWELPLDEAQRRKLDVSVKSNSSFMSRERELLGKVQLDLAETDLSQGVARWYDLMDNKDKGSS

[3] = target: T3, E-Syt1cyto (Homo sapiens, UniProt Q9BSJ8); assay: FRET dequenching lipid transfer between liposomes; type: biochemical; settings: Ca2+ present, His tag on DGS-NTA(Ni) ER-like donor liposomes, PM-like acceptors, pH 7.4; labelled compound
T3 construct: gene ESYT1; cytosolic region, residues 93-1104, N-terminal hairpin region replaced by His tag (pCMV6-AN-His)
T3 sequence (Q9BSJ8 93-1104): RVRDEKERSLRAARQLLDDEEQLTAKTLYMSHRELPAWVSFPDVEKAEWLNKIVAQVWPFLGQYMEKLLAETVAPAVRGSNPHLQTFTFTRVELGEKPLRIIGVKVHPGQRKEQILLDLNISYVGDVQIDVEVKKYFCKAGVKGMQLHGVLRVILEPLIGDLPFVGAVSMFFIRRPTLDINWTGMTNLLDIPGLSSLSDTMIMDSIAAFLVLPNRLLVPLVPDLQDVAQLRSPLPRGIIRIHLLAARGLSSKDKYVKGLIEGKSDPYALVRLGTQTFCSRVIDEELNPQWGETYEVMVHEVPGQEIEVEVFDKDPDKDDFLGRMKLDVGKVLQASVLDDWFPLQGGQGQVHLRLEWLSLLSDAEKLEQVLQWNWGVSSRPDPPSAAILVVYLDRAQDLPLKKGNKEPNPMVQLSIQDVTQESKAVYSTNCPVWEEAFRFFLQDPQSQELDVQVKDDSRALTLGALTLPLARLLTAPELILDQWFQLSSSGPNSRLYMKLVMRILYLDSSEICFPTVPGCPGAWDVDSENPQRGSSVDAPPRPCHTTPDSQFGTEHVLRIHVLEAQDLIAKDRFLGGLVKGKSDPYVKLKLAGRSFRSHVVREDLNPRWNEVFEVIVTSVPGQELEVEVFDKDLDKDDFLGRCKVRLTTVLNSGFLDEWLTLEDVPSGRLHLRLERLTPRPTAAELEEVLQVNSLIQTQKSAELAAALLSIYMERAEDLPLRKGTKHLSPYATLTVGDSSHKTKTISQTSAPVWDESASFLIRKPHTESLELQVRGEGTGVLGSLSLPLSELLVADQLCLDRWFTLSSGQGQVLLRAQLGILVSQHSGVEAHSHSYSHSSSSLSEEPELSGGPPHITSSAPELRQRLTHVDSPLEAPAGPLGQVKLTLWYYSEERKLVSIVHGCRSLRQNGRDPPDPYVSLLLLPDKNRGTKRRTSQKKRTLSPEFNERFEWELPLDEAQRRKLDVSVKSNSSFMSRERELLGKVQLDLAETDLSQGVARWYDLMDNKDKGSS

[4] = target: T4, SMP of E-Syt2 (Homo sapiens, UniProt A0FGR8); assay: FRET dequenching lipid transfer between liposomes; type: biochemical; settings: curved ER-like donor and PM-like acceptor liposomes, pH 7.4; labelled compound
T4 construct: gene ESYT2; SMP domain alone, residues 162-355, His tag (pET-28a), dimer
T4 sequence (A0FGR8 162-355 isoform A0FGR8-2): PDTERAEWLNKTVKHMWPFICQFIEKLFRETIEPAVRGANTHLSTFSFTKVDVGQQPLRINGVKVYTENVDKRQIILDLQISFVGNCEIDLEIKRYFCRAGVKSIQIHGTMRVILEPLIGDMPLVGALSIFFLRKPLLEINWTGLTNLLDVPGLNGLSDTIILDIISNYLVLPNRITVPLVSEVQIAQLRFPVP

[5] = target: T5, SMP domain of E-Syt1 (SMP) (Homo sapiens, UniProt Q9BSJ8); assay: FRET dequenching lipid transfer between liposomes; type: biochemical; settings: 40-nm sorted ER-like donor and 800-nm PM-like acceptor liposomes, pH 7.4, 37 °C, Ca2+ not needed; Rhodamine-PE co-transferred; labelled compound
T5 construct: gene ESYT1; SMP domain alone, residues 134-327, N-terminal His tag (pET-28a), dimer
T5 sequence (Q9BSJ8 134-327): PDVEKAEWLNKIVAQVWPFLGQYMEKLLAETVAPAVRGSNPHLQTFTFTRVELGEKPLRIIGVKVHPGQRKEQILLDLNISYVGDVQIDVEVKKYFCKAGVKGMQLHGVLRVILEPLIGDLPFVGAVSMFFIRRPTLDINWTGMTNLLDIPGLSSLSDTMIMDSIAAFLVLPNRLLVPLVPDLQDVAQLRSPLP

[6] = target: T6, SMP-C2AB of E-Syt1 (Homo sapiens, UniProt Q9BSJ8); assay: native PAGE, NBD fluorescence of protein band; type: binding; settings: protein 40 uM, 4 °C, 1 h; solubilized NBD-PE added in methanol; labelled compound
T6 construct: gene ESYT1; SMP-C2A-C2B fragment, residues 93-634, His-tagged (pCMV6-AN-His), Expi293 cells, Ni-NTA and gel filtration
T6 sequence (Q9BSJ8 93-634): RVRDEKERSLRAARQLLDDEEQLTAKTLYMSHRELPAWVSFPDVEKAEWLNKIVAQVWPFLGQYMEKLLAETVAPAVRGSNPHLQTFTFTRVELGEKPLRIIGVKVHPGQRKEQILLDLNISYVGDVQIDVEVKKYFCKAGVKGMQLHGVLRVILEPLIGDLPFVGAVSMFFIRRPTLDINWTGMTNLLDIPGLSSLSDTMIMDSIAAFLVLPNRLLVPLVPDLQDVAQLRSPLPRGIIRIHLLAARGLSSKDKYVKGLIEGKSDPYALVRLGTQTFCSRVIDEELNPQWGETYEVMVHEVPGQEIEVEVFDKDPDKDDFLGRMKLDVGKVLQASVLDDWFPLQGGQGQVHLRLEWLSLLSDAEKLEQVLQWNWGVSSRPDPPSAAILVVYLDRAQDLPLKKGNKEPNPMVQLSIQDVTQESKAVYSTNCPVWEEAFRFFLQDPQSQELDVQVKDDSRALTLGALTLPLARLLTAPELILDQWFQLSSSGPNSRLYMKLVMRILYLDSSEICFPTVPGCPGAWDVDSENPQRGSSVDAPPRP

[7] = target: T7, SMP-C2AB of E-Syt1 (Homo sapiens, UniProt Q9BSJ8, V169W/L308W); assay: native PAGE, NBD fluorescence of protein band; type: binding; settings: protein 40 uM, 4 °C, 1 h; solubilized NBD-PE added in methanol; lipid cavity blocked; labelled compound
T7 construct: gene ESYT1; SMP-C2A-C2B fragment, residues 93-634, His-tagged (pCMV6-AN-His), Expi293 cells, Ni-NTA and gel filtration
T7 sequence (Q9BSJ8 93-634 V169W/L308W): T6 sequence (Q9BSJ8 93-634) with V77W, L216W

[8] = target: T8, SMP-C2AB of E-Syt1 (Homo sapiens, UniProt Q9BSJ8, K227E); assay: native PAGE, NBD fluorescence of protein band; type: binding; settings: protein 40 uM, 4 °C, 1 h; solubilized NBD-PE added in methanol; labelled compound
T8 construct: gene ESYT1; SMP-C2A-C2B fragment, residues 93-634, His-tagged (pCMV6-AN-His), Expi293 cells, Ni-NTA and gel filtration
T8 sequence (Q9BSJ8 93-634 K227E): T6 sequence (Q9BSJ8 93-634) with K135E

Structure (SMILES): CCCCCCCC/C=C\CCCCCCCC(=O)OC[C@H](COP(=O)(O)OCCNc1ccc([N+](=O)[O-])c2nonc12)OC(=O)CCCCCCC/C=C\CCCCCCCC [NBD-PE, 1,2-dioleoyl-sn-glycero-3-phosphoethanolamine-N-(7-nitro-2-1,3-benzoxadiazol-4-yl)]
- FRET dequenching lipid transfer between liposomes [1]: SMP domains of E-Syt2 and E-Syt3 showed similar membrane curvature- and charge-facilitated lipid transfer
- FRET dequenching lipid transfer from proteoliposomes [2]: 40-nm sorted ER-like proteoliposomes dramatically accelerated the lipid transfer by E-Syt1
- FRET dequenching lipid transfer between liposomes [3]: purified His-tagged E-Syt1cyto had comparable lipid transfer and membrane tethering levels as full-length E-Syt1
- FRET dequenching lipid transfer between liposomes [4]: SMP domains of E-Syt2 and E-Syt3 showed similar membrane curvature- and charge-facilitated lipid transfer
- FRET dequenching lipid transfer between liposomes [5]: 40-nm sorted ER-like liposomes produced a robust lipid transfer level
- native PAGE, NBD fluorescence of protein band [6]: solubilized NBD-PE was loaded onto purified WT protein and K227E mutant
- native PAGE, NBD fluorescence of protein band [7]: block the hydrophobic cavity of the SMP domain (V169W/L308W) impaired lipid harboring
- native PAGE, NBD fluorescence of protein band [8]: NBD-PE was loaded onto purified WT protein and K227E mutant at a similar level

Reference: PMC10023780, “Insights into membrane association of the SMP domain of extended synaptotagmin” (Nature Communications, 2023)
